In ChEMBL document CHEMBL4354785, “Recent insights into natural product inhibitors of matrix metalloproteinases” (Medchemcomm, 2019) one finds IC50 data, which are given here for four molecules.

Assay [1] deals with 72 kDa type IV collagenase (Homo sapiens, UniProt P08253). Description: Inhibition of recombinant human MMP2 using fluorescently conjugated gelatin as substrate.
The target in assay [2] is T1, Matrix metalloproteinase-9 (Homo sapiens, UniProt P14780). The experiment in a line: Inhibition of human MMP9 (107 to 707 residues) expressed in Escherichia coli BL21(DE3) cells.
Assay [3] has as its target T1, Matrix metalloproteinase-9. The experiment in a line: Inhibition of human MMP9 catalytic domain using Mca-PLGL-Dpa-AR-NH2 as substrate by fluorescence method.

Chain of 72 kDa type IV collagenase (P08253 whole entry, the tested form may be a part): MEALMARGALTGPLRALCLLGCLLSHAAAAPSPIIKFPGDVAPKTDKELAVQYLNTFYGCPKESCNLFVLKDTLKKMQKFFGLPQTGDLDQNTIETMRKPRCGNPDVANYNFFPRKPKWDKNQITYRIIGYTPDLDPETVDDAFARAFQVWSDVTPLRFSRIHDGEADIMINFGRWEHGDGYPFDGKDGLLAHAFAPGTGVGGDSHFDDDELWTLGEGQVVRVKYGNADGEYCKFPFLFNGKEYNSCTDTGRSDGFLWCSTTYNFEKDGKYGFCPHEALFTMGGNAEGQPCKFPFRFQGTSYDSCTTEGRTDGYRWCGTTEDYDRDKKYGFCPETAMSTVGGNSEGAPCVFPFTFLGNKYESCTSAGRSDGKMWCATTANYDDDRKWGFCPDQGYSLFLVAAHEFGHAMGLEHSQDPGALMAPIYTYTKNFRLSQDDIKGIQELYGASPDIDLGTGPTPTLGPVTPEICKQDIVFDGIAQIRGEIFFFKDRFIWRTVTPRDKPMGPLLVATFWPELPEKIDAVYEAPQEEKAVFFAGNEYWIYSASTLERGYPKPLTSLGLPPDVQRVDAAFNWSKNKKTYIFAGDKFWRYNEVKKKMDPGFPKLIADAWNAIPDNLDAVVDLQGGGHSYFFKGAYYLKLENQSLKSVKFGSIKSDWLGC
T1 sequence (P14780 whole entry, the tested form may be a part): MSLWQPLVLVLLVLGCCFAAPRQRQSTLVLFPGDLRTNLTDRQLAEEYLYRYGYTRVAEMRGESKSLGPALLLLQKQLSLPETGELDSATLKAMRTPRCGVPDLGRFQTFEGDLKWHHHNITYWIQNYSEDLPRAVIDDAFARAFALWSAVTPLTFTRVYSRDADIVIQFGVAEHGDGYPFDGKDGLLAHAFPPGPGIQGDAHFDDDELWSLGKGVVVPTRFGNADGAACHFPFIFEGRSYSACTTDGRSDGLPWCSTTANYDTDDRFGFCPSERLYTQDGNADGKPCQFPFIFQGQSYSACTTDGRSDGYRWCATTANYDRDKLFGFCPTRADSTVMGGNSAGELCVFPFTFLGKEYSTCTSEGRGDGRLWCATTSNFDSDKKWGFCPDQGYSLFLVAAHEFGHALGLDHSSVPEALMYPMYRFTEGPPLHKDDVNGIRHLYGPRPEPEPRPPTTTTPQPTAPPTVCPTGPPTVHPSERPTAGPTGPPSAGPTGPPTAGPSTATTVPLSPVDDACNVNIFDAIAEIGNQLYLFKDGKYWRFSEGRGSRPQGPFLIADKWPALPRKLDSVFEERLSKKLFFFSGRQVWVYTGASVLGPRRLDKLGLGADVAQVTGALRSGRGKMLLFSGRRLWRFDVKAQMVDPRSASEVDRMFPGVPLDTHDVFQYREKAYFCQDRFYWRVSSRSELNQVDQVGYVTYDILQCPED

As to `CCCCC/C=C/CCCCCCCc1cccc(O)c1C(=O)O`, the IC50 in assay [1] was found to be 6.5 µM. `O=C(/C=C/c1ccc(O)c(O)c1)Oc1ccc2c(c1)C(=O)OCC2` gave an IC50 in assay [2] of 1.39 µM. With `COc1ccc(/C=C/C(=O)O[C@H](C(=O)O)[C@](O)(Cc2ccc(O)c(O)c2)C(=O)O)cc1O` [CIMICIFUGIC ACID B], in assay [3], inhibition was half-maximal at 13.4 µM (IC50). On to `CCCCCC/C=C\CCCCCCCc1cccc(O)c1C(=O)O` [GINGKOLIC ACID], for which the IC50 in assay [1] is 6.3 µM.
